From patent US20260035376A1, “COMPOSITIONS AND METHODS FOR INHIBITION OF RAS” (TheRas, Inc., priority 2022, published 2026)
pIC50: −log10 of the molar value.

Key:
[1] = target: T1, Avi-KRAS WT (1-169) GppNHp/RAF1 RBD-3×FLAG (52-151) (Homo sapiens, UniProt P01116); assay: Disrupting RAS-effector binding HTRF assay, Raf1 RBD-KRAS WT-GppNHp; conditions: PPI HTRF, 50 nM Avi-KRAS WT GppNHp, compound titration 30-0.0045 μM; read-out: Raf1 RBD-KRAS WT-GppNHp disruption
T1 construct: 50 nM Avi-KRAS WT (1-169) GppNHp/RAF1 RBD-3×FLAG (52-151)
Method: (§1) A protein:protein interaction (PPI) Homogeneous Time Resolved Fluorescence (HTRF) assay was used to determine the effectiveness of compounds of the present disclosure in disrupting KRAS protein and effector RAF1 binding.
(§2) The HTRF assay used the following reagents and proteins: (i) 50 nM Avi-KRAS G12D (1-169) GppNHp/RAF1 RBD-3×FLAG (52-151); (ii) 50 nM Avi-KRAS G12R (1-169) GppNHp/RAF1 RBD-3×FLAG (52-151); (iii) 50 nM Avi-KRAS G12V (1-169) GppNHp/RAF1 RBD-3×FLAG (52-151), (iv) 50 nM Avi-KRAS WT (1-169) GppNHp/RAF1 RBD-3×FLAG (52-151); and (v) 75 nM Avi-RAF1 RBD-3×FLAG. The assay buffer included: 50 mM Tris pH 7.5, 100 mM NaCl, 5 mM MgCl2, 0.1% BSA, […], 10% DMSO. The bead buffer included: 50 mM Tris pH 7.5, 0.01% o Tween 20. Assay volume of 20 μL was used in a 384 well plate-low volume format. Compound titration: 30-0.0045 μM, 3× dilution series.
(§3) The HTRF assay employed the following protocol:
(§4) Compounds were dispensed in assay plate (384-well, Grenier Bione #784075) using Echo (model 555) with dose response settings: 200 nL final volume, titration from 30 μM as a 10-point dilution series. Protein mix was prepared in assay buffer, and dispensed on plates, 10 μL per well, then incubated for 1 h at room temperature, with 700 rpm shaking. Reagents mix was prepared and dispensed on plates, 10 μL per well, then incubated for 1 h at room temperature, with 700 rpm shaking.
(§5) Plates were analyzed on an Envision plate reader using the following setting: Excitation 320 nm, Bandwidth 75 nM; Emission 615 nm, Bandwidth 85 nM, Gain 100%, Flashes 100, Lag 60 μs. Data were reported as percentage of activity, with DMSO as 100%. Data were plotted and analyzed using Prism 8.
(§6) The biochemical Raf1-KRAS G12D/G12R/G12V/WT-GppNHP disruption assay IC50 of selected compounds described herein are shown in Table 4.

[2] = target: T2, Avi-KRAS G12D (1-169) GppNHp/RAF1 RBD-3×FLAG (52-151) (Homo sapiens, UniProt P01116, G12D); assay: Disrupting RAS-effector binding HTRF assay, Raf1 RBD-KRAS G12D-GppNHp; conditions: PPI HTRF, 50 nM Avi-KRAS G12D GppNHp, compound titration 30-0.0045 μM; read-out: Raf1 RBD-KRAS G12D-GppNHp disruption
T2 construct: 50 nM Avi-KRAS G12D (1-169) GppNHp/RAF1 RBD-3×FLAG (52-151)
Method: as §1, §2, §3, §4, §5, §6

[3] = target: T3, Avi-KRAS G12R (1-169) GppNHp/RAF1 RBD-3×FLAG (52-151) (Homo sapiens, UniProt P01116, G12R); assay: Disrupting RAS-effector binding HTRF assay, Raf1 RBD-KRAS G12R-GppNHp; conditions: PPI HTRF, 50 nM Avi-KRAS G12R GppNHp, compound titration 30-0.0045 μM; read-out: Raf1 RBD-KRAS G12R-GppNHp disruption
T3 construct: 50 nM Avi-KRAS G12R (1-169) GppNHp/RAF1 RBD-3×FLAG (52-151)
Method: as §1, §2, §3, §4, §5, §6

[4] = test system: KRAS G12V protein/effector signaling in SW620 cells; assay: Cell-based pERK HTRF assay in SW620 cell; conditions: Homo sapiens, SW-620, 1 h incubation
Method: pERK assay (Perkin Elmer) was used to determine the effectiveness of compounds in disrupting KRAS G12V protein/effector signaling in cells.
On Day 1, cells (SW620) were seeded into 96-well plates at 3×10^4 cells/well in 80 μL complete growth media (DMEM, 10% FBS).
(§7) On Day 2, cells were treated with compounds at 0.25% DMSO. The source plate was created with compounds diluted in media at 5-fold the final assay concentration. The compounds were run in a 9-point concentration curve starting at 10 μM, with a half-log dilution between concentrations. 20 μL was transferred onto the cell plates (final volume in wells was 100 μL). Plates were harvested after 1 h incubation by aspirating media and adding kit-supplied 1× supplemented lysis buffer to all wells (50 μL per well). Plates were then placed on a plate shaker and incubated at 850 rpm for an additional 30 min.
Antibody mixture solution was prepared by diluting aliquoted d2 and Eu Cryptate antibodies 1:20 in kit supplied detection buffer, and mixing the diluted antibodies solutions (1:1 v:v). Four μL of this solution was then added to a 384-well detection plate (Perkin Elmer; 6008230).
(§8) Samples were homogenized by pipetting up and down and then transferred (16 μL of cell lysates) from the 96-well cell culture plate to two wells of the HTRF 384-well detection plate containing the antibody solution. Plates were centrifuged (524 g for 1 min) and allowed to incubate between 4 and 24 h at room temperature. Maximum signal was reached after 4 h incubation time and remained stable over a period of 24 hours. Therefore, readings could be made between 4 and 24 h of incubation. Plates were centrifuged again (524 g for 1 min), then analyzed on the EnVision plate reader using the following settings: Excitation 320 nm, Bandwidth 75 nm; Emission 615 nm, Bandwidth 85 nm; Gain 100%; Flashes 100; Lag 60 μs.

[5] = test system: KRAS G12D protein/effector signaling in GP2d cells; assay: Cell-based pERK HTRF assay in GP2d cell; conditions: 1 h, 60 min incubation
Method: A pERK assay (Perkin Elmer) was used to determine the effectiveness of compounds in disrupting KRAS G12D protein/effector signaling in cells.
On Day 1, cells (GP2d) were seeded into 96-well plates at 3×10^4 cells/well in 80 μL complete growth media (DMEM, 10% FBS).
as §7, with “[…],” for “10 μM,”, “60 min” for “1 h”
Antibody mixture solution was prepared by diluting aliquoted d2 and Eu Cryptate antibodies 1:20 in kit supplied detection buffer, and mixing the diluted antibodies solutions (1:1 v:v). 4 μL of this solution was then added to a 384-well detection plate (Perkin Elmer; 6008230).
as §8

[6] = target: T4, Avi-KRAS G12V (1-169) GppNHp/RAF1 RBD-3×FLAG (52-151) (Homo sapiens, UniProt P01116, G12V); assay: Disrupting RAS-effector binding HTRF assay, Raf1 RBD-KRAS G12V-GppNHp; conditions: PPI HTRF, 50 nM Avi-KRAS G12V GppNHp, compound titration 30-0.0045 μM; read-out: Raf1 RBD-KRAS G12V-GppNHp disruption
T4 construct: 50 nM Avi-KRAS G12V (1-169) GppNHp/RAF1 RBD-3×FLAG (52-151)
Method: as §1, §2, §3, §4, §5, §6

T4 sequence (P01116 1-169 isoform P01116-2 G12V limits assumed): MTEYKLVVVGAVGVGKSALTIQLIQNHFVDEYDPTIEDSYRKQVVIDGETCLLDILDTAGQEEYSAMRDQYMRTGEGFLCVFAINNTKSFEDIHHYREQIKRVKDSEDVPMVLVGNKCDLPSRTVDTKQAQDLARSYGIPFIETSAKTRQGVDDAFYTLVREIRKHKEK
T1 sequence (P01116 1-169 isoform P01116-2 limits assumed): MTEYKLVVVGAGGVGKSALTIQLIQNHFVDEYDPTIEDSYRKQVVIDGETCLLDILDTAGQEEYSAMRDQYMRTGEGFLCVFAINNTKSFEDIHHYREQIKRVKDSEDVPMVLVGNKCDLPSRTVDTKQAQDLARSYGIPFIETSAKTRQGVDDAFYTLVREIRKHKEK
T3 sequence (P01116 1-169 isoform P01116-2 G12R limits assumed): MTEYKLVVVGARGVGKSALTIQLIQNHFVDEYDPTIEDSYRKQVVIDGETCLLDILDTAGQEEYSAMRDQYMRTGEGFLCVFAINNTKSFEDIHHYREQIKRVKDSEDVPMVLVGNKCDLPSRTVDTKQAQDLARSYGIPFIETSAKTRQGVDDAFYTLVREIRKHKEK
T2 sequence (P01116 1-169 isoform P01116-2 G12D limits assumed): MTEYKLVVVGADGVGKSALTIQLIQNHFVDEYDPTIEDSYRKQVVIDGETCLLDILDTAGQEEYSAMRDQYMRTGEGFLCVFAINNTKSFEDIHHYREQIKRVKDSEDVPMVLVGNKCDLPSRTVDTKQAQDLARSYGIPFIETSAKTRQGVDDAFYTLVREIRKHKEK

Row | Compound | pIC50 [1] | pIC50 [2] | pIC50 [3] | pIC50 [4] | pIC50 [5] | pIC50 [6]
1 | N#Cc1c(N)sc2c(F)ccc(-c3c(C(F)(F)F)cc4c(N5C[C@H]6CC[C@@H](C5)N6)nc(OCC5CCOCC5)nc4c3F)c12 [Compound 37, 4-(4-((1R,5S)-3,8-diazabicyclo[3.2.1]octan-3-yl)-8-fluoro-2-((tetrahydro-2H-pyran-4-yl)methoxy)-6-(trifluoromethyl)quinazolin-7-yl)-2-amino-7-fluorobenzo[b]thiophene-3-carbonitrile] | 5.00 to 6.00 | 6.00 to 7.00 | < 5.00 | < 5.00 | ≥ 7.00 | < 5.00
2 | N#Cc1c(N)sc2c(F)ccc(-c3c(C(F)(F)F)cc4c(N5CC6CCC(C5)N6)nc(OCCC5CCCO5)nc4c3F)c12 (stereo not drawn) [Compound 51] | 5.00 to 6.00 | 6.00 to 7.00 | < 5.00 | < 5.00 | ≥ 7.00 | < 5.00
3 | N#Cc1c(N)sc2c(F)ccc(-c3c(C(F)(F)F)cc4c(N5CC6CCC(C5)N6)nc(OCC5CCCOC5)nc4c3F)c12 (stereo not drawn) [Compound 48] | 5.00 to 6.00 | 5.00 to 6.00 | < 5.00 | < 5.00 | ≥ 7.00 | < 5.00
4 | CN1C(=O)CC[C@@H]1COc1nc(N2CC3CCC(C2)N3)c2cc(C(F)(F)F)c(-c3ccc(F)c4sc(N)c(C#N)c34)c(F)c2n1 [Compound 57] | 5.00 to 6.00 | 6.00 to 7.00 | < 5.00 | < 5.00 | ≥ 7.00 | < 5.00
5 | CN1C(=O)CC[C@H]1COc1nc(N2CC3CCC(C2)N3)c2cc(C(F)(F)F)c(-c3ccc(F)c4sc(N)c(C#N)c34)c(F)c2n1 [Compound 54] | 5.00 to 6.00 | 6.00 to 7.00 | < 5.00 | < 5.00 | ≥ 7.00 | < 5.00
6 | N#Cc1c(N)sc2c(F)ccc(-c3c(C(F)(F)F)cc4c(N5CC6CCC(C5)N6)nc(OCCc5ccon5)nc4c3F)c12 [Compound 42] | 5.00 to 6.00 | 6.00 to 7.00 | 5.00 to 6.00 | < 5.00 | ≥ 7.00 | < 5.00
7 | CN1CCC(COc2nc(N3CC4CCC(C3)N4)c3cc(C(F)(F)F)c(-c4ccc(F)c5sc(N)c(C#N)c45)c(F)c3n2)C1=O (stereo not drawn) [Compound 55] | 6.00 to 7.00 | 6.00 to 7.00 | 5.00 to 6.00 | < 5.00 | ≥ 7.00 | 5.00 to 6.00
8 | N#Cc1c(N)sc2c(F)ccc(-c3c(C(F)(F)F)cc4c(N5CC6CCC(C5)N6)nc(OCC5CCCO5)nc4c3F)c12 (stereo not drawn) [Compound 45] | 5.00 to 6.00 | 6.00 to 7.00 | 5.00 to 6.00 | < 5.00 | ≥ 7.00 | 5.00 to 6.00
